In patent publication US20130065922A1, “NOVEL AMIDES AS FUNGICIDES” (priority 2010, published 2013):
Read-outs that look alike come from different tables or passages of the source.

Legend:
[1] = system: Phytophthora infestans; assay: whole plant or invertebrate; format: in vivo; conditions: in Solanum lycopersicum, foliar, read-out: inhibit fungal infestation
[2] = system: Plasmopara viticola; assay: whole plant or invertebrate; format: in vivo; conditions: foliar, read-out: inhibit fungal infestation
[3] = system: Pythium ultimum; assay: Pythium ultimum/Liquid Culture (Seedling Damping Off); format: cell-based; conditions: Globisporangium ultimum, read-out: inhibit fungal infestation
[4] = system: Blumeria graminis f. Sp. tritici (Erysiphe graminis f. Sp. tritici); assay: Blumeria graminis f. Sp. tritici (Erysiphe graminis f. Sp. tritici)/Wheat/Leaf Disc Preventative (Powdery Mildew on Wheat); format: in vivo; conditions: foliar, read-out: inhibit fungal infestation
[5] = system: Phaeosphaeria nodorum (Septoria nodorum); assay: Phaeosphaeria nodorum (Septoria nodorum)/Wheat/Leaf Disc Preventative (Glume Blotch); format: in vivo; conditions: Parastagonospora nodorum, foliar, read-out: inhibit fungal infestation
[6] = 200 ppm, wheat leaf segments cv. Kanzler, preventative, 5-7 days after application, untreated control infected to over 80%
[7] = 200 ppm, liquid culture (PDB), 24° C., growth inhibition photometrically 2-3 days after application
[8] = 200 ppm, wheat leaf segments cv. Kanzler, preventative, 6-8 days after application, untreated control infected to over 80%

Question: Which results are given for `COCC#CC(C)(C)NC(=O)C(Oc1ccc2ncc(OC)cc2c1)SC` (stereo not drawn) [Compound 4, N-(4-Methoxy-1,1-dimethyl-but-2-ynyl)-2-(3-methoxy-quinolin-6-yloxy)-2-methylsulfanyl-acetamide]?
Answer: inhibition at 200 ppm [1]: ≥ 80%; inhibition at 200 ppm [2]: ≥ 80%; melting point: 95 to 98 °C; inhibition at 200 ppm [3]: ≥ 80%; inhibition at 200 ppm [4]: ≥ 80%

Question: Which inhibition at 200 ppm [1] does the source give for `C#CC(C)(COC)NC(=O)C(Oc1ccc2ncc(OC)cc2c1)SC` (stereo not drawn) [Compound 5, N-(1-Methoxymethyl-1-methyl-prop-2-ynyl)-2-(3-methoxy-quinolin-6-yloxy)-2-methylsulfanyl-acetamide] here?
Answer: Its inhibition at 200 ppm is ≥ 80%.

Question: What about the inhibition at 200 ppm [5, 6] of the same compound?
Answer: The inhibition at 200 ppm was ≥ 80%.

Question: And the inhibition at 200 ppm [2]?
Answer: The inhibition at 200 ppm was ≥ 80%.

Question: And the melting point?
Answer: Its melting point is 112 to 118 °C.

Question: And the inhibition at 200 ppm [3, 7]?
Answer: The inhibition at 200 ppm was ≥ 80%.

Question: What about the inhibition at 200 ppm [4, 8] of the same compound?
Answer: The inhibition at 200 ppm was ≥ 80%.

Question: What does the source list for `C#CC(C)(C)NC(=O)C(Oc1ccc2ncc(OC)cc2c1)SC` (stereo not drawn) [Compound 10, N-(1,1-Dimethyl-prop-2-ynyl)-2-(3-methoxy-quinolin-6-yloxy)-2-methylsulfanyl-acetamide]?
Answer: inhibition at 200 ppm [1]: ≥ 80%; inhibition at 200 ppm [5, 6]: ≥ 80%; inhibition at 200 ppm [2]: ≥ 80%; melting point: 152 to 154 °C; inhibition at 200 ppm [3, 7]: ≥ 80%; inhibition at 200 ppm [4, 8]: ≥ 80%

Question: With `CC#CC(C)(C)NC(=O)C(Oc1ccc2ncc(OC)cc2c1)SC` (stereo not drawn) [Compound 11, N-(1,1-Dimethyl-but-2-ynyl)-2-(3-methoxy-quinolin-6-yloxy)-2-methylsulfanyl-acetamide] as the compound, how does the inhibition at 200 ppm [1] read?
Answer: The inhibition at 200 ppm was ≥ 80%.

Question: What about the inhibition at 200 ppm [5] of the same compound?
Answer: The inhibition at 200 ppm was ≥ 80%.

Question: And the inhibition at 200 ppm [2]?
Answer: Its inhibition at 200 ppm is ≥ 80%.

Question: And the melting point?
Answer: Its melting point is 137 to 139 °C.

Question: What about the inhibition at 200 ppm [3] of the same compound?
Answer: Its inhibition at 200 ppm is ≥ 80%.

Question: And the inhibition at 200 ppm [4]?
Answer: The inhibition at 200 ppm was ≥ 80%.

Question: What does the source list for `CC#CC(C)(C)NC(=O)C(Oc1cc(Cl)c2ncc(OC)cc2c1)SC` (stereo not drawn) [Compound 14, 2-(8-Chloro-3-methoxy-quinolin-6-yloxy)-N-(1,1-dimethyl-but-2-ynyl)-2-methylsulfanyl-acetamide]?
Answer: inhibition at 200 ppm [1]: ≥ 80%; inhibition at 200 ppm [5]: ≥ 80%; inhibition at 200 ppm [2]: ≥ 80%; melting point: 133 to 136 °C; inhibition at 200 ppm [3]: ≥ 80%; inhibition at 200 ppm [4]: ≥ 80%

Question: What does the source list for `CO/N=C/C(C)(C)NC(=O)C(Oc1cc(Cl)c2ncc(OC)cc2c1)SC` (stereo not drawn) [Compound 15, 2-(8-Chloro-3-methoxy-quinolin-6-yloxy)-N-(2-methoxyimino-1,1-dimethyl-ethyl)-2-methylsulfanyl-acetamide]?
Answer: inhibition at 200 ppm [1]: ≥ 80%; inhibition at 200 ppm [5, 6]: ≥ 80%; inhibition at 200 ppm [2]: ≥ 80%; melting point: 124 to 125 °C; inhibition at 200 ppm [3, 7]: ≥ 80%; inhibition at 200 ppm [4, 8]: ≥ 80%

Question: Which inhibition at 200 ppm [1] does the source give for `COc1cnc2c(C)cc(OC(SC)C(=O)NC(C)(C)C)cc2c1` (stereo not drawn) [Compound 16, N-tert-Butyl-2-(3-methoxy-8-methyl-quinolin-6-yloxy)-2-methylsulfanyl-acetamide] here?
Answer: Its inhibition at 200 ppm is ≥ 80%.

Question: And the inhibition at 200 ppm [5, 6]?
Answer: The inhibition at 200 ppm was ≥ 80%.

Question: What about the melting point of the same compound?
Answer: Its melting point is 147 to 150 °C.

Question: And the inhibition at 200 ppm [3, 7]?
Answer: The inhibition at 200 ppm was ≥ 80%.

Question: And the inhibition at 200 ppm [4, 8]?
Answer: Its inhibition at 200 ppm is ≥ 80%.

Question: Which results are given for `COCC#CC(C)(C)NC(=O)C(Oc1cc(C)c2ncc(OC)cc2c1)SC` (stereo not drawn) [Compound 17, N-(4-Methoxy-1,1-dimethyl-but-2-ynyl)-2-(3-methoxy-8-methyl-quinolin-6-yloxy)-2-methylsulfanyl-acetamide]?
Answer: inhibition at 200 ppm [1]: ≥ 80%; inhibition at 200 ppm [5]: ≥ 80%; inhibition at 200 ppm [2]: ≥ 80%; melting point: 94 to 98 °C; inhibition at 200 ppm [3]: ≥ 80%; inhibition at 200 ppm [4]: ≥ 80%

Question: With `COCC(C)(C#N)NC(=O)C(Oc1cc(C)c2ncc(OC)cc2c1)SC` (stereo not drawn) [Compound 18, N-(1-Cyano-2-methoxy-1-methyl-ethyl)-2-(3-methoxy-8-methyl-quinolin-6-yloxy)-2-methylsulfanyl-acetamide] as the compound, how does the inhibition at 200 ppm [1] read?
Answer: The inhibition at 200 ppm was ≥ 80%.

Question: What about the inhibition at 200 ppm [2] of the same compound?
Answer: The inhibition at 200 ppm was ≥ 80%.

Question: What about the melting point of the same compound?
Answer: The melting point was 123 to 129 °C.

Question: And the inhibition at 200 ppm [3, 7]?
Answer: Its inhibition at 200 ppm is ≥ 80%.

Question: What about the inhibition at 200 ppm [4, 8] of the same compound?
Answer: The inhibition at 200 ppm was ≥ 80%.

Question: With `CO/N=C/C(C)(C)NC(=O)C(Oc1cc(C)c2ncc(OC)cc2c1)SC` (stereo not drawn) [Compound 19, N-(2-Methoxyimino-1,1-dimethyl-ethyl)-2-(3-methoxy-8-methyl-quinolin-6-yloxy)-2-methylsulfanyl-acetamide] as the compound, how does the inhibition at 200 ppm [1] read?
Answer: Its inhibition at 200 ppm is ≥ 80%.

Question: And the inhibition at 200 ppm [5, 6]?
Answer: Its inhibition at 200 ppm is ≥ 80%.

Question: What about the inhibition at 200 ppm [2] of the same compound?
Answer: Its inhibition at 200 ppm is ≥ 80%.

Question: And the melting point?
Answer: The melting point was 121 to 124 °C.

Question: What about the inhibition at 200 ppm [3, 7] of the same compound?
Answer: The inhibition at 200 ppm was ≥ 80%.

Question: What about the inhibition at 200 ppm [4, 8] of the same compound?
Answer: The inhibition at 200 ppm was ≥ 80%.

Question: What does the source list for `CCOc1cnc2c(C)cc(OC(SC)C(=O)NC(C)(C)/C=N/OC)cc2c1` (stereo not drawn) [Compound 21, 2-(3-Ethoxy-8-methyl-quinolin-6-yloxy)-N-(2-methoxyimino-1,1-dimethyl-ethyl)-2-methylsulfanyl-acetamide]?
Answer: inhibition at 200 ppm [1]: ≥ 80%; inhibition at 200 ppm [5, 6]: ≥ 80%; inhibition at 200 ppm [2]: ≥ 80%; melting point: 125 to 126 °C; inhibition at 200 ppm [3, 7]: ≥ 80%; inhibition at 200 ppm [4, 8]: ≥ 80%

Question: For `CCOc1cnc2c(C)cc(OC(SC)C(=O)NC(C)(C)C#CCOC)cc2c1` (stereo not drawn) [Compound 22], which inhibition at 200 ppm [1] is on record?
Answer: Its inhibition at 200 ppm is ≥ 80%.

Question: And the inhibition at 200 ppm [5]?
Answer: Its inhibition at 200 ppm is ≥ 80%.

Question: And the inhibition at 200 ppm [2]?
Answer: Its inhibition at 200 ppm is ≥ 80%.

Question: And the melting point?
Answer: The melting point was 107 to 109 °C.

Question: What about the inhibition at 200 ppm [3] of the same compound?
Answer: The inhibition at 200 ppm was ≥ 80%.

Question: And the inhibition at 200 ppm [4]?
Answer: The inhibition at 200 ppm was ≥ 80%.
